The test system of the test is Primary Human Gingival Fibroblast (HGF). Nature of the test: In-vitro 2D tissue damage assay via Collagen-1 marker (Collagen-1 ELISA after TBHP challenge). The class given is cell-based. The conditions noted are these: 0.5% gel dilution 24 hr, 50 μM TBHP 1 hr, 24 hr in complete media; supernatant. The protocol: In vitro gingival 2D gingival fibroblast tissue damage/prevention was used to assess the effects of treatment with Inventive Compositions and Comparative compositions on collagen-1 ELISA assay.
The obtained tissues were kept in cold Dulbecco's modified Eagle's medium (DMEM, Gibco) with 10% fetal bovine serum and a cocktail of antibiotics and antimycotics. Next, the tissues were minced with a blade and spun down at 4° C. and 200×g for 5-10 minutes to separate and wash the pellets. Resuspended tissue explants were laid onto a 60 mm dish and kept in an incubator. Every 3-5 days during culture, fibroblasts grown from tissue explants were washed and continued under passage using 0.2% trypsin. Proliferation tests and cell damage recovery experiments were performed when the fibroblasts reached passages 3-10.
Primary Human gingival fibroblast (HGF) cell was maintained in a 37° C. incubator with 5% CO2 saturation. Dulbecco's modified Eagle's medium (DMEM, Gibco) containing 10% fetal calf serum, 1% penicillin-streptomycin was used as the complete culture medium, which was changed every 2-3 days.
1.8×10^5 Cells were seeded in a 6-well plate and cultured with complete medium in at 37° C. and 5% CO2 for 24 hr. […] The supernatant of cell culture was collected and analysed by Collagen-1 ELISA kit (CUSABIO).

With TGF-B [Positive control (TGF-B)], the Collagen-1 was found to be 155.59 ng/mL.

(Values after patent publication US12582593B2, “Oral care compositions for gum health” (The Procter & Gamble Company, priority 2021, dated 2026).)
